For assay [1], the system named is PDGF-R. Kind of assay: PDGF-R Assay (cellular ELISA, U1242 cells). The assay is classed as cell-based. More on the design: concentration or dose not given beside the values. The note with it: protocol P.119. The gist of the method:
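U1242 cells seeded in 0.5% serum, serum-starved, then exposed to compound for 2 hr at 37°C before 5–10 min ligand stimulation and lysis in HNTG. Lysate captured on receptor-antibody-coated plates; phosphotyrosine detected with polyclonal anti-pTyr, goat anti-rabbit IgG and ABTS/H2O2, A410 (ref 630 nm), versus untreated cells.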
On the technique in general: An ELISA detects its analyte on a solid surface through an enzyme-linked reagent.

The target of assay [2] is T1, EGFR (Homo sapiens, UniProt P00533).
T1 construct: endogenous in cells; host or cells: A431 cells (lysate, captured with SUMO1 anti-EGFR antibody)
Kind of assay: Biochemical EGFR Assay. Also noted: concentration or dose not given beside the values. The settings on record: protocol P.167. The gist of the method: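 EGFR from A431 lysate was captured on anti-EGFR-coated wells and preincubated 30 min with compound (diluted 1:10 in TBS) at room temperature. After ATP/MnCl2 phosphorylation for 5 min, the reaction was stopped with EDTA. Phosphotyrosine was detected by ELISA (anti-phosphotyrosine, peroxidase conjugate, ABTS) at 410 nm.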

T1 sequence (P00533 25-1210): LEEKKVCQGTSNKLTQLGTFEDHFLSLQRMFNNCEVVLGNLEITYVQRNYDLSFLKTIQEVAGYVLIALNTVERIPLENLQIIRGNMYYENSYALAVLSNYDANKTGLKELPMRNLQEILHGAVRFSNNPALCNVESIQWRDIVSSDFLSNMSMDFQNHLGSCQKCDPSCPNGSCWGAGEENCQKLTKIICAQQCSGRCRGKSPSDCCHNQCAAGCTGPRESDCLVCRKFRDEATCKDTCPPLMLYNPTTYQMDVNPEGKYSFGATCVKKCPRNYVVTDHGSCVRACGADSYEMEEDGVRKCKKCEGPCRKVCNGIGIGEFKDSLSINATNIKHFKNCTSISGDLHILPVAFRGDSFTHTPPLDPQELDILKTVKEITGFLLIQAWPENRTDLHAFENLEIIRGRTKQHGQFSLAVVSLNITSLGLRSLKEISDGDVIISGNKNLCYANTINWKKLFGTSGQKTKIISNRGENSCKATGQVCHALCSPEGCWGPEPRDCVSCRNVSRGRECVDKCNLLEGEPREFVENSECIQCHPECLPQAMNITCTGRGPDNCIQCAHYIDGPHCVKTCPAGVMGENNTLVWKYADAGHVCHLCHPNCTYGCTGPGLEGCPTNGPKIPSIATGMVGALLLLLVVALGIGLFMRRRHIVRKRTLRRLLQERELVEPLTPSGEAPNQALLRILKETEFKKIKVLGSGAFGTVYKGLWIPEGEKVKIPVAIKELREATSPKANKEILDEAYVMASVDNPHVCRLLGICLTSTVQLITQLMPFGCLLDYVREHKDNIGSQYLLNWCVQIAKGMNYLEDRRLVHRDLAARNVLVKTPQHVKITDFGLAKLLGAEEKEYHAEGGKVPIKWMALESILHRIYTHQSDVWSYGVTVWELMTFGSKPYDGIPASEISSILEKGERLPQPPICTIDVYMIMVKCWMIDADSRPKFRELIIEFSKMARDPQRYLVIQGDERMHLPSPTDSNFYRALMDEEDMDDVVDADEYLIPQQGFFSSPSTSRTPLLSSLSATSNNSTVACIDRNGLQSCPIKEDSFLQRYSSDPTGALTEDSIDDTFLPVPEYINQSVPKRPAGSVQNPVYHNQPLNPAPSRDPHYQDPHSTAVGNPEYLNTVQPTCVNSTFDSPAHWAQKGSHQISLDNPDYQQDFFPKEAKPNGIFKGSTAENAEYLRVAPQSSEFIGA

Take `Cc1ccc(C)c(C=C2C(=O)Nc3c(Br)cc(Br)c(C)c32)c1` [10737/H07]: in assay [1], the “PDGF Kinase % Inhibition (P.119)” value is −17.7%. The “Biochem EGFR % Inhibition (P.167)” value in assay [2] is 17.2%.

For `Cc1c(Br)cc(Br)c2c1C(=Cc1ccc3ccccc3c1)C(=O)N2` [10737/H08], the “PDGF Kinase % Inhibition (P.119)” value in assay [1] was −26.9%. The “Biochem EGFR % Inhibition (P.167)” value in assay [2] is −36.6%. For `Cc1c(Br)cc(Br)c2c1C(=Cc1ccc(Oc3ccccc3)cc1)C(=O)N2` [10737/H09], in that order: −11.7% and −15.9%. For `Cc1c(Br)cc(Br)c2c1C(=Cc1cccc(Oc3ccc(C(C)(C)C)cc3)c1)C(=O)N2` [10737/H10], in that order: −12.9% and 0.3%.

For `Cc1c(Br)cc(Br)c2c1C(=Cc1cccc(Oc3cccc(C(F)(F)F)c3)c1)C(=O)N2` [10737/H11], the “PDGF Kinase % Inhibition (P.119)” value in assay [1] is recorded as −16.5%. Besides, the “Biochem EGFR % Inhibition (P.167)” value in assay [2] is given as 4.5%. On to `CCCOc1ccc(C=C2C(=O)Nc3ccc(CCCl)cc32)cc1` [10738/G11], for which the “Biochem EGFR % Inhibition (P.167)” value in assay [2] worked out at 19.4%. Still for that read-out and setting: with `Cc1ccc(Oc2cccc(C=C3C(=O)Nc4c(Br)cc(Br)c(C)c43)c2)cc1` [10738/H02] the figure was −52.0%. Take `Cc1c(Br)cc(Br)c2c1C(=Cc1cccc(Oc3ccc(Cl)c(Cl)c3)c1)C(=O)N2` [10738/H03]: the “Biochem EGFR % Inhibition (P.167)” value in assay [2] was determined as 16.7%. Same read-out and setting: for `COc1ccc(C=C2C(=O)Nc3c(Br)cc(Br)c(C)c32)cc1O` [10738/H04] the value was −7.0%. The same measure, in the same setting: with `Cc1c(Br)cc(Br)c2c1C(=Cc1cc(O)ccc1[N+](=O)[O-])C(=O)N2` [10738/H05] the figure was 5.5%; with `Cc1c(Br)cc(Br)c2c1C(=Cc1cccc(O)c1O)C(=O)N2` [10738/H06], −53.8%.

(Values after patent US20020026053A1, “Novel 3-(substituted) -2- indolinones compounds and use thereof as inhibitors of protein kinase activity” (priority 1997, published 2002).)
